According to patent US20150025105A1, “INDOLIZINE DERIVATIVES” (priority 2012, published 2015):
Where two headings read alike, the source gives them in different places. One block for each compound: values may come before it.

How the values were obtained:
Format in all cases: biochemical
human COX-2 = biological target: T1, human COX-2 (Homo sapiens, UniProt P35354); experiment: Cyclooxygenase (COX) inhibition assay, COX-2 (enzyme immunoassay); details: Table 2
T1 construct: purchased Cayman Chemical
T1 sequence (P35354 18-604): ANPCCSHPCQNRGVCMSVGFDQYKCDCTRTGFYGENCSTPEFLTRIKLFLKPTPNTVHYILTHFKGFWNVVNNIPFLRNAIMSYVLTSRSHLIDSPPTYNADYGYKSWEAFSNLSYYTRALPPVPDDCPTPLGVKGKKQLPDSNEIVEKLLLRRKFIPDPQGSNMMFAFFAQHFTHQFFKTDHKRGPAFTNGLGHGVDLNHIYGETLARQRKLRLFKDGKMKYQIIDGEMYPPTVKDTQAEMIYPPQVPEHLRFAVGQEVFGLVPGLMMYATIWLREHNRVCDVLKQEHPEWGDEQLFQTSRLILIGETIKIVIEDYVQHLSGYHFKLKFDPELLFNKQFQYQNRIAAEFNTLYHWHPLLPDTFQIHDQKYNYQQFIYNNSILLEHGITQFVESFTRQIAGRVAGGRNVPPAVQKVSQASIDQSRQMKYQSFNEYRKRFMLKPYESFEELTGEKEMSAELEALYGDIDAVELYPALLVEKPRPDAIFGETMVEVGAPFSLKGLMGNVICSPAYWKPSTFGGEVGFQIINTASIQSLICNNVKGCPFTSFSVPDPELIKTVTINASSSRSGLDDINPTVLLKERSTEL
Method: (§1) The ability of the test compounds to inhibit (IC50 values, μM) human COX-1 and COX-2 (Cayman Chemical, Ann Arbor) is determined PGF2α, produced from COX reaction is measured by enzyme immunoassay. Either COX-1 or COX-2 enzyme in the presence of heme and various concentrations of test compound solutions (0.01-10 μM) is incubated after which substrate arachidonic acid is added. The concentration of the test compound causing 50% inhibition (IC50, μM) is calculated from the concentration-inhibition response curve.

sPLA2 IIA = biological target: T2, sPLA2 IIA (Homo sapiens, UniProt P14555); experiment: Phospholipase A2 (PLA2) inhibition assay, sPLA2 IIA; details: Table 2; for Selectivity Index (sPLA2/Lp-PLA2): ratio of sPLA2 IIA IC50 to Lp-PLA2 IC50
T2 construct: purchased Cayman Chemical Company
T2 sequence (P14555 21-144): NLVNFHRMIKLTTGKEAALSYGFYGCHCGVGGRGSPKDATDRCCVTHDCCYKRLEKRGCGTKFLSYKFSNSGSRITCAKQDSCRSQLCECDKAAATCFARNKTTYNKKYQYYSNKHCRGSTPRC
Method: (§2) Phospholipase inhibition by synthesized compounds toward human Lp-PLA2, sPLA2 IIA and IV (Cayman Chemical Company, Ann Arbor, Mich.) are evaluated using a 96-well plate format. In this assay, different concentrations of test compounds (0.001-30 μM) are incubated with the PLA2 enzymes. The substrate hydrolysis by PLA2 is monitored by UV-spectroscopy. […] The concentration of the test compound causing 50% inhibition (IC50, μM) is determined from the concentration-inhibition response curve. Isothermal calorimetry (ITC) experiments using will be carried out to determine binding constant (KB) and dissociation constant (KD) of Lp-PLA2 inhibitors (Ann. Rev. Biophy. 37, 135-151, 2008; J. Am. Chem. Soc. 125, 10570-10579, 2003)]. Reference compounds (eg: varespladib and darapladib) will be used for comparison.

human COX-1 = biological target: T3, human COX-1 (Homo sapiens, UniProt P23219); experiment: Cyclooxygenase (COX) inhibition assay, COX-1 (enzyme immunoassay); details: Table 2
T3 construct: purchased Cayman Chemical
T3 sequence (P23219 24-599): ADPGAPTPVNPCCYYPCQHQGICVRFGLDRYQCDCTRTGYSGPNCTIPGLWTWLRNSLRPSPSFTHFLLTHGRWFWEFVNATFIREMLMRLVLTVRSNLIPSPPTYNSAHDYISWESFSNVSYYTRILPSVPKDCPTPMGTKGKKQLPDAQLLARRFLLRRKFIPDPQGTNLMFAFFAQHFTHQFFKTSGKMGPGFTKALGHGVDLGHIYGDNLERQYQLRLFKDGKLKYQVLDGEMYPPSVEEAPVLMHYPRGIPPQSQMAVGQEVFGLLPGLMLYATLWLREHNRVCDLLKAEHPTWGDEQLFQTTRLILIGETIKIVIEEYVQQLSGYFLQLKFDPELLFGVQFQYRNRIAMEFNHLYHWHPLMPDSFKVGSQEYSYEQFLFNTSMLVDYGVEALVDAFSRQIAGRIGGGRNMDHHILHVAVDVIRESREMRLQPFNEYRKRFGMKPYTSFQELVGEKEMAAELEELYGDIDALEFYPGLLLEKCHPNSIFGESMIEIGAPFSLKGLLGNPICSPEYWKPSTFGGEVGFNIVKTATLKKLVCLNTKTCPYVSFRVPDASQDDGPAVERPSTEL
Method: as §1

human Lp-PLA2 = biological target: T4, human Lp-PLA2 (Homo sapiens, UniProt Q13093); experiment: Lp-PLA2 inhibition assay (UV-spectrometry, 2-thio-PAF/DTNB, 96-well)
T4 construct: purchased Cayman Chemical
T4 sequence (Q13093 22-441): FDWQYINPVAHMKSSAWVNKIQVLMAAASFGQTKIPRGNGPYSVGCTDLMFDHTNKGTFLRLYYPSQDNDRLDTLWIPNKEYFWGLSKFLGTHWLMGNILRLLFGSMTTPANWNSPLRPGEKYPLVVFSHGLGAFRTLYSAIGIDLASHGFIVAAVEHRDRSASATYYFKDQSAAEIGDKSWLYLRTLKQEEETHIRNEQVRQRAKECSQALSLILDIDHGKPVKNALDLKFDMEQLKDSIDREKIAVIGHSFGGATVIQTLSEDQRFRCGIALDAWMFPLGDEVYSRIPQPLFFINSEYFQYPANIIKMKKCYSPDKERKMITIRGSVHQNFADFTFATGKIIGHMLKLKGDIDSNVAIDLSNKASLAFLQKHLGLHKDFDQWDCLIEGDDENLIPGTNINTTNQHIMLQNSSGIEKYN
Method: The ability of synthesized indolizine derivatives (6) to inhibit (IC50 values, μM) human Lp-PLA2 (Cayman Chemical, Ann Arbor, Mich.) was determined based on a UV-spectrometry assay using 96-well plate format. […] The concentration of the test compound causing 50% inhibition (IC50, μM) was determined from the concentration-inhibition response curve (duplicate to quadruplicate determinations).
as §2

[1] = Table 1, substrate 2-thio-PAF, DTNB, 0.1M Tris-HCl pH 7.2, read-out: Lp-PLA2 (IC50)
[2] = Table 2, read-out: Lp-PLA2 Inhibition (IC50)

Compound: CC(=O)c1c(-c2ccccc2)c(C(=O)c2ccccc2)c2ccccn12 [Cmpd 1]
IC50 (human COX-2): > 10000 nM
IC50 (sPLA2 IIA): > 10000 nM
Selectivity Index (sPLA2/Lp-PLA2) (sPLA2 IIA): >19.6
IC50 (human COX-1): > 10000 nM
IC50 (human Lp-PLA2; [1]): 510 nM
IC50 (human Lp-PLA2; [2]): 510 nM

Compound: CC(=O)c1c(-c2ccccc2)c(C(=O)c2ccc(C)cc2)c2ccccn12 [Cmpd 2, 1-[1-(4-methylbenzoyl)-2-phenylindolizin-3-yl]ethanone]
IC50 (human COX-2): > 10000 nM
IC50 (sPLA2 IIA): > 10000 nM
Selectivity Index (sPLA2/Lp-PLA2) (sPLA2 IIA): >500
IC50 (human COX-1): > 10000 nM
IC50 (human Lp-PLA2; [1]): 30 nM
IC50 (human Lp-PLA2; [2]): 20 nM

Compound: CC(=O)c1c(-c2ccccc2)c(C(=O)c2ccc(C(C)C)cc2)c2ccccn12 [Cmpd 3, 1-[1-(4-isopropylbenzoyl)-2-phenylindolizin-3-yl]ethanone]
IC50 (human COX-2): > 10000 nM
IC50 (sPLA2 IIA): > 10000 nM
Selectivity Index (sPLA2/Lp-PLA2) (sPLA2 IIA): >12.5
IC50 (human COX-1): > 10000 nM
IC50 (human Lp-PLA2; [1]): 800 nM
IC50 (human Lp-PLA2; [2]): 800 nM

Compound: CCCCc1ccc(C(=O)c2c(-c3ccccc3)c(C(C)=O)n3ccccc23)cc1 [Cmpd 4]
IC50 (human COX-2): > 10000 nM
IC50 (sPLA2 IIA): > 10000 nM
Selectivity Index (sPLA2/Lp-PLA2) (sPLA2 IIA): >33.3
IC50 (human COX-1): > 10000 nM
IC50 (human Lp-PLA2; [1]): 290 nM
IC50 (human Lp-PLA2; [2]): 300 nM

Compound: COc1ccc(C(=O)c2c(-c3ccccc3)c(C(C)=O)n3ccccc23)cc1 [Cmpd 5, 1-[1-(4-methoxybenzoyl)-2-phenylindolizin-3-yl]ethanone]
IC50 (human COX-2): > 10000 nM
IC50 (sPLA2 IIA): > 10000 nM
Selectivity Index (sPLA2/Lp-PLA2) (sPLA2 IIA): >13.1
IC50 (human COX-1): > 10000 nM
IC50 (human Lp-PLA2; [1]): 760 nM
IC50 (human Lp-PLA2; [2]): 760 nM

Compound: CSc1ccc(C(=O)c2c(-c3ccccc3)c(C(C)=O)n3ccccc23)cc1 [Cmpd 6, 1-[1-(4-(methylthio)benzoyl)-2-phenylindolizin-3-yl]ethanone]
IC50 (human COX-2): > 10000 nM
IC50 (sPLA2 IIA): > 10000 nM
Selectivity Index (sPLA2/Lp-PLA2) (sPLA2 IIA): >40
IC50 (human COX-1): > 10000 nM
IC50 (human Lp-PLA2; [1]): 240 nM
IC50 (human Lp-PLA2; [2]): 250 nM

Compound: CC(=O)c1c(-c2ccccc2)c(C(=O)c2ccc(C(F)(F)F)cc2)c2ccccn12 [Cmpd 7, 1-[2-phenyl-1-(4-(trifluoromethyl)benzoyl)indolizin-3-yl]ethanone]
IC50 (human COX-2): > 10000 nM
IC50 (sPLA2 IIA): > 10000 nM
Selectivity Index (sPLA2/Lp-PLA2) (sPLA2 IIA): >166.6
IC50 (human COX-1): > 10000 nM
IC50 (human Lp-PLA2; [1]): 60 nM
IC50 (human Lp-PLA2; [2]): 60 nM

Compound: CC(=O)c1c(-c2ccccc2)c(C(=O)c2ccc(F)cc2)c2ccccn12 [Cmpd 8, 1-[1-(4-fluorobenzoyl)-2-phenylindolizin-3-yl]ethanone]
IC50 (human COX-2): > 10000 nM
IC50 (sPLA2 IIA): > 10000 nM
Selectivity Index (sPLA2/Lp-PLA2) (sPLA2 IIA): >17.5
IC50 (human COX-1): > 10000 nM
IC50 (human Lp-PLA2; [1]): 250 nM
IC50 (human Lp-PLA2; [2]): 570 nM

Compound: CC(=O)c1c(-c2ccccc2)c(C(=O)c2ccc(Br)cc2)c2ccccn12 [Cmpd 9, 1-[1-(4-bromobenzoyl)-2-phenylindolizin-3-yl]ethanone]
IC50 (human COX-2): > 10000 nM
IC50 (sPLA2 IIA): > 10000 nM
Selectivity Index (sPLA2/Lp-PLA2) (sPLA2 IIA): >14.2
IC50 (human COX-1): > 10000 nM
IC50 (human Lp-PLA2; [1]): 940 nM
IC50 (human Lp-PLA2; [2]): 700 nM

Compound: CC(=O)c1c(-c2ccccc2)c(C(=O)c2ccc(Cl)cc2)c2ccccn12 [Cmpd 10, 1-[1-(4-chlorobenzoyl)-2-phenylindolizin-3-yl]ethanone]
IC50 (human COX-2): > 10000 nM
IC50 (sPLA2 IIA): > 10000 nM
Selectivity Index (sPLA2/Lp-PLA2) (sPLA2 IIA): >10.6
IC50 (human COX-1): > 10000 nM
IC50 (human Lp-PLA2; [1]): 700 nM
IC50 (human Lp-PLA2; [2]): 940 nM

IC50 (human Lp-PLA2; [1]): 20 nM
Compound: CC(=O)c1c(-c2ccc(C)cc2)c(C(=O)c2ccccc2)c2ccccn12 [Cmpd 11, 1-[1-benzoyl-2-p-tolylindolizin-3-yl]ethanone]

IC50 (human Lp-PLA2; [1]): 790 nM
Compound: CC(=O)c1c(-c2ccccc2)c(C(=O)c2ccc(F)c(F)c2)c2ccccn12 [Cmpd 12, 1-[1-(3,4-difluorobenzoyl)-2-phenylindolizin-3-yl]ethanone]
